Source: ChEMBL document CHEMBL5154668, “Modulating physicochemical properties of tetrahydropyridine-2-amine BACE1 inhibitors with electron-withdrawing groups: A systematic study” (Eur J Med Chem, 2022)

Experiments:
[1] = Inhibition of sodium channel (unknown origin); set-up: species or system Homo sapiens
[2] = Inhibition of calcium channel (unknown origin); set-up: species or system Homo sapiens
Beta-secretase 1 = Beta-secretase 1 (Homo sapiens, UniProt P56817); test: Inhibition of BACE1 (unknown origin)
[3] = target: Voltage-gated inwardly rectifying potassium channel KCNH2 (Homo sapiens, UniProt Q12809); test: Inhibition of hERG; assay type: toxicity
[4] = Apparent permeability in MDCK-MDR1 cells; assay type: ADME, cell-based, Canis lupus familiaris; conditions: dog
[5] = Efflux ratio of apparent permeability in MDCK-MDR1 cells; assay type: ADME, cell-based, Canis lupus familiaris; conditions: dog
[6] = Dissociation constant, pKa of the compound by potentiometric titration method; assay type: physicochemical

Sequence of Beta-secretase 1 (P56817 whole entry): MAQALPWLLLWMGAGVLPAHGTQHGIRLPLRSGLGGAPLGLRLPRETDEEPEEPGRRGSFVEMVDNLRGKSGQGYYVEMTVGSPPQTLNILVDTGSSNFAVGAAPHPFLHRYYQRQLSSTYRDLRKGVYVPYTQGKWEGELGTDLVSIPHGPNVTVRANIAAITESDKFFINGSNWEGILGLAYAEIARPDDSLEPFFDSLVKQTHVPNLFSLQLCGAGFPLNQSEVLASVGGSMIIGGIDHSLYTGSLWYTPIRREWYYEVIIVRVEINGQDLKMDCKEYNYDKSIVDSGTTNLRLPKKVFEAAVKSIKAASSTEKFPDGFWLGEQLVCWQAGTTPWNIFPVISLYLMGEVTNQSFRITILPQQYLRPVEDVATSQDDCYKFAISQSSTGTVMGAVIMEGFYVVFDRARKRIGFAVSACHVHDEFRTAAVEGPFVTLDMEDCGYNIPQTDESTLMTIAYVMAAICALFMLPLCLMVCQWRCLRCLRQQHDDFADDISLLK
Sequence of Voltage-gated inwardly rectifying potassium channel KCNH2 (Q12809 whole entry): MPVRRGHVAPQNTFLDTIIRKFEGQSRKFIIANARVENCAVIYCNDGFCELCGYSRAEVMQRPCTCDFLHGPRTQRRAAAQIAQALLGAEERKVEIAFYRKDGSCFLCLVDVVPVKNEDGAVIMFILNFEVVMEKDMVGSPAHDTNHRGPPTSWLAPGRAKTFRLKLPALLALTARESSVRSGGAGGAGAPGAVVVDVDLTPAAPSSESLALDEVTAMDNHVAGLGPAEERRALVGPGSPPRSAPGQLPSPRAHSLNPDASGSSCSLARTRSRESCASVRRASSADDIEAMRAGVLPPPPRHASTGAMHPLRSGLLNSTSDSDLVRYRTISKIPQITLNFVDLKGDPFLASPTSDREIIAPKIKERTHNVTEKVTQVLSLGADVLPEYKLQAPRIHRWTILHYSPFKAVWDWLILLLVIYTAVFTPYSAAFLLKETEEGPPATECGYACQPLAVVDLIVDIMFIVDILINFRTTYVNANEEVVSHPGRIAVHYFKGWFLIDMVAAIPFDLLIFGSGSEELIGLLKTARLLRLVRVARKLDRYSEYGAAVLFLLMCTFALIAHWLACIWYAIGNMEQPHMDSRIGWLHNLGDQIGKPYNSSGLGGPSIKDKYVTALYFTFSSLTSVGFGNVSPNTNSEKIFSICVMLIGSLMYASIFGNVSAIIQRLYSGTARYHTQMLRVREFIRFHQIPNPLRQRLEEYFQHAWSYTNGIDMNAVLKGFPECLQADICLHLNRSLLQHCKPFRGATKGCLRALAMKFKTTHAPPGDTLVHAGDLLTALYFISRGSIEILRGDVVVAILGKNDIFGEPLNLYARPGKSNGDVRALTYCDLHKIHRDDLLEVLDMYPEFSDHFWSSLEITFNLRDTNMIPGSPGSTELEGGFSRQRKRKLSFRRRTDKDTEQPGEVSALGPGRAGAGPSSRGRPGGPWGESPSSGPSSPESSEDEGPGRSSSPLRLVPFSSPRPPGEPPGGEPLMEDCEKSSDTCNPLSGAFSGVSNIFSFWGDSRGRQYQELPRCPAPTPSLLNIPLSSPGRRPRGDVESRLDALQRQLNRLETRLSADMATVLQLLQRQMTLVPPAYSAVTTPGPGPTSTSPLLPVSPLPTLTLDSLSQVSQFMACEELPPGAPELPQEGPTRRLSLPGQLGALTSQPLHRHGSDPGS

| IC50 [1] | IC50 [2] | IC50 (Beta-secretase 1) | Papp [4] | efflux ratio [5] | pKa [6] | Structure (SMILES) | IC50 [3] |
| --- | --- | --- | --- | --- | --- | --- | --- |
| 8510 nM | > 10000 nM |  |  |  |  | C[C@@]1(S(C)(=O)=O)CC[C@@](CF)(c2cc(NC(=O)c3cnc(OCF)cn3)ccc2F)N=C1N |  |
| 4900 nM | 6610 nM | 9.8 nM |  |  |  | COc1cnc(-c2ccc(F)c([C@]3(C)CC[C@@](C)(C#N)C(N)=N3)c2)cn1 |  |
| 650 nM | 1950 nM | 59 nM |  |  |  | CC1CC[C@@](CF)(c2cc(-c3cc4c(cn3)OC(F)(F)O4)ccc2F)N=C1N (stereo not given in full) |  |
| > 10000 nM | > 10000 nM | 54 nM |  |  |  | COc1cnc(-c2ccc(F)c([C@]3(CF)CC[C@@](C)(C#N)C(N)=N3)c2)cn1 |  |
| > 10000 nM | > 10000 nM |  |  |  |  | COc1cnc(C(=O)Nc2ccc(F)c([C@@]3(C)N=C(N)[C@](C)(S(C)(=O)=O)C[C@@H]3F)c2)cn1 |  |
| > 10000 nM | > 10000 nM | 66 nM | 2.7 ×10⁻⁶ cm/s | 52 | 9.2 | CN(C)C(=O)[C@]1(C)CC[C@@](CF)(c2cc(-c3ccc(F)cn3)ccc2F)N=C1N | 8320 nM |
|  |  | 38 nM |  |  | 7.6 | C[C@@]1(S(C)(=O)=O)CC[C@@](CF)(c2nc(-c3cnc(OCF)cn3)ccc2F)N=C1N |  |
| 2140 nM | > 10000 nM | 4 nM |  |  |  | CN(C)S(=O)(=O)[C@]1(C)CC[C@@](CF)(c2cc(-c3ccc(F)cn3)ccc2F)N=C1N |  |
| 170 nM | < 100 nM | 5.9 nM |  |  | 7.4 | C[C@@]1(c2cc(-c3cc4c(cn3)OC(F)(F)O4)ccc2F)CC[C@@](C)(S(=O)(=O)C(F)(F)F)C(N)=N1 | > 10000 nM |
| > 10000 nM | > 10000 nM | 851 nM |  |  |  | COc1cnc(-c2ccc(F)c([C@]3(CF)CC[C@](C)(C#N)C(N)=N3)c2)cn1 |  |
| 8710 nM | > 10000 nM | 4 nM |  |  |  | COc1cnc(-c2ccc(F)c([C@]3(C)CC[C@@](C)(S(C)(=O)=O)C(N)=N3)c2)cn1 |  |
| > 10000 nM | > 10000 nM | 12 nM | 54 ×10⁻⁶ cm/s | 15 | 6 | COc1cnc(-c2ccc(F)c([C@]3(C(F)F)CC[C@@](C)(C#N)C(N)=N3)c2)cn1 | > 10000 nM |
| 6460 nM | > 10000 nM | 15 nM |  |  |  | C[C@@]1(c2cc(NC(=O)c3ccc(F)cn3)ccc2F)CC[C@@](CF)(S(C)(=O)=O)C(N)=N1 |  |
|  |  | 31 nM |  |  | > 11 | C[C@@]1(c2cc(-c3ccc(Cl)cn3)ccc2F)CCC2(CC2)C(N)=N1 |  |
|  |  | 96 nM |  |  | > 11 | C[C@@]1(c2cc(-c3ccc(Cl)cn3)ccc2F)C[C@@H]2C[C@@H]2C(N)=N1 |  |
| > 10000 nM | > 10000 nM | 8.9 nM |  |  |  | NC1=N[C@](CF)(c2cc(-c3cnc(OCF)cn3)ccc2F)CCC1(F)F |  |
|  |  | 25 nM | 37 ×10⁻⁶ cm/s | 22 | 7 | C[C@@]1(c2nc(-c3ccc(F)cn3)cs2)CC[C@@](C)(S(C)(=O)=O)C(N)=N1 |  |
| > 10000 nM | > 10000 nM | 12 nM |  |  |  | C[C@@]1(c2cc(-c3cnc(OCF)cn3)ccc2F)CCC(F)(F)C(N)=N1 |  |
